Measurements: PubChem BioAssay AID248 (DTP/NCI, 2004)
Several values for one entry are separate records, joined by “and”; a condition that tells them apart may be missing. Identical values can stand only once. Toxic doses and inconclusive results are not listed. No stated cut-off is given here; in the data, active means T/C of 150% or more; inactive means T/C below 125%.

System: L1210 leukemia ip in BDF1 mice, survival T/C
Test: NCI In Vivo Anticancer Drug Screen. Data for tumor model L1210 Leukemia (intraperitoneal) in B6D2F1 (BDF1) mice
Conditions: endpoint: mean survival time, higher = longer survival
Summary of the method: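 In this screen, tumor-bearing mice given compound are compared to those given vehicle, and their survival values are reported as a treated-to-control quotient.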

[1] = dose: 100.0 mg/kg/injection, schedule: Q01DX001 (ip), vehicle: saline
[2] = dose: 200.0 mg/kg/injection, schedule: Q01DX001 (ip), vehicle: saline
[3] = dose: 400.0 mg/kg/injection, schedule: Q01DX001 (ip), vehicle: saline
[4] = dose: 100.0 mg/kg/injection, schedule: Q01DX009 (ip), vehicle: Klucel (hydroxypropylcellulose) (HPC)
[5] = dose: 200.0 mg/kg/injection, schedule: Q01DX009 (ip), vehicle: Klucel (hydroxypropylcellulose) (HPC)
[6] = dose: 400.0 mg/kg/injection, schedule: Q01DX009 (ip), vehicle: Klucel (hydroxypropylcellulose) (HPC)
[7] = dose: 100.0 mg/kg/injection, schedule: Q01DX001 (ip), vehicle: saline with Tween-80
[8] = dose: 200.0 mg/kg/injection, schedule: Q01DX001 (ip), vehicle: saline with Tween-80
[9] = dose: 400.0 mg/kg/injection, schedule: Q01DX001 (ip), vehicle: saline with Tween-80
[10] = dose: 100.0 mg/kg/injection, schedule: Q04DX003 (ip), vehicle: saline
[11] = dose: 100.0 mg/kg/injection, schedule: Q01DX009 (ip), vehicle: other
[12] = dose: 200.0 mg/kg/injection, schedule: Q01DX009 (ip), vehicle: other
[13] = dose: 400.0 mg/kg/injection, schedule: Q01DX009 (ip), vehicle: other
[14] = dose: 200.0 mg/kg/injection, schedule: Q04DX003 (ip), vehicle: saline
[15] = dose: 400.0 mg/kg/injection, schedule: Q04DX003 (ip), vehicle: saline
[16] = dose: 50.0 mg/kg/injection, schedule: Q01DX001 (ip), vehicle: saline
[17] = dose: 100.0 mg/kg/injection, schedule: Q01DX009 (ip), vehicle: saline
[18] = dose: 200.0 mg/kg/injection, schedule: Q01DX009 (ip), vehicle: saline

Measured: T/C

NNCCC(=O)O
inactive: [1] 107 % of control | [2] 102 % of control | [3] 115 % of control

O=C(NCCCl)Sc1ccc(Cl)cc1
inactive: dose: 20.0 mg/kg/injection, schedule: Q04DX003 (ip), vehicle: Klucel (hydroxypropylcellulose) (HPC) 92 % of control | dose: 40.0 mg/kg/injection, schedule: Q04DX003 (ip), vehicle: Klucel (hydroxypropylcellulose) (HPC) 90 % of control | dose: 80.0 mg/kg/injection, schedule: Q04DX003 (ip), vehicle: Klucel (hydroxypropylcellulose) (HPC) 93 % of control

Cc1ccc(NC(=O)C(Cl)(Cl)Cl)cc1Cl
inactive: [4] 112 % of control | [5] 106 % of control | [6] 109 % of control

Nc1nc(-c2ccc([N+](=O)[O-])cc2)cc(=O)[nH]1
inactive: [7] 98 % of control | [8] 93 % of control | [9] 92 % of control

CC1CCC2(NC1)OC1CC3C4CCC5CC(OC6OC(CO)C(OC7OC(CO)C(O)C(OC8OCC(O)C(O)C8O)C7OC7OC(CO)C(O)C(O)C7O)C(O)C6O)CCC5(C)C4CCC3(C)C1C2C (stereo unspecified)
inactive: dose: 12.5 mg/kg/injection, schedule: Q01DX009 (ip), vehicle: saline with Tween-80 93 % of control | dose: 25.0 mg/kg/injection, schedule: Q01DX009 (ip), vehicle: saline with Tween-80 90 % of control | dose: 50.0 mg/kg/injection, schedule: Q01DX009 (ip), vehicle: saline with Tween-80 94 % of control | dose: 100.0 mg/kg/injection, schedule: Q01DX001 (sc), vehicle: steriod suspending solution 95 % of control | dose: 200.0 mg/kg/injection, schedule: Q01DX001 (sc), vehicle: steriod suspending solution 103 % of control | dose: 400.0 mg/kg/injection, schedule: Q01DX001 (sc), vehicle: steriod suspending solution 97 % of control

CC(=O)Nc1ccc(S(=O)(=O)NC(C(=O)O)C(=O)O)cc1
inactive: [1] 100 % of control | [2] 103 % of control | [3] 103 % of control

CCCCN(CCCC)CCN(CCCC)CCN(CCCC)CCCC
inactive: dose: 25.0 mg/kg/injection, schedule: Q04DX003 (ip), vehicle: saline 103 % of control | dose: 50.0 mg/kg/injection, schedule: Q04DX003 (ip), vehicle: saline 98 % of control | [10] 98 % of control and 89 % of control

O=C1c2ccccc2C(=O)c2cc(-c3ccccc3)ccc21
inactive: [7] 90 % of control | [8] 93 % of control | [9] 87 % of control

CCCCCCCCCCCC(=O)CCC
inactive: [11] 87 % of control | dose: 100.0 mg/kg/injection, schedule: Q04DX003 (ip), vehicle: other 103 % of control | [12] 95 % of control | dose: 200.0 mg/kg/injection, schedule: Q04DX003 (ip), vehicle: other 105 % of control | [13] 89 % of control | dose: 400.0 mg/kg/injection, schedule: Q04DX003 (ip), vehicle: other 103 % of control

CC(C)(C)c1cc(/C=N/NC(=O)COCC(=O)N/N=C/c2cc(C(C)(C)C)c(O)c(C(C)(C)C)c2)cc(C(C)(C)C)c1O
inactive: [4] 95 % of control | [5] 103 % of control | [6] 92 % of control

CO/N=C(/c1ccccc1)c1cccc[n+]1C
inactive: dose: 18.8 mg/kg/injection, schedule: Q04DX003 (ip), vehicle: saline 100 % of control | dose: 37.5 mg/kg/injection, schedule: Q04DX003 (ip), vehicle: saline 103 % of control

Clc1ccc(-c2cc(=[N+]3CCCCC3)ss2)cc1
inactive: dose: 100.0 mg/kg/injection, schedule: Q01DX009 (ip), vehicle: saline with Tween-80 100 % of control | dose: 100.0 mg/kg/injection, schedule: Q04DX003 (ip), vehicle: saline with Tween-80 104 % of control | dose: 200.0 mg/kg/injection, schedule: Q04DX003 (ip), vehicle: saline with Tween-80 94 % of control

CSC(=S)NNC(=O)c1ccc(C)cc1
inactive: dose: 20.0 mg/kg/injection, schedule: Q04DX003 (ip), vehicle: saline 96 % of control | dose: 40.0 mg/kg/injection, schedule: Q04DX003 (ip), vehicle: saline 98 % of control | dose: 75.0 mg/kg/injection, schedule: Q01DX001 (ip), vehicle: saline 98 % of control | dose: 75.0 mg/kg/injection, schedule: Q04DX003 (ip), vehicle: saline 105 % of control

COc1cc2c(cc1O)-c1cc3ccc(OC)c(OC)c3c[n+]1CC2
inactive: dose: 100.0 mg/kg/injection, schedule: Q04DX002 (ip), vehicle: Klucel (hydroxypropylcellulose) (HPC) 103 % of control

NC(CCCCn1nnc2c(=O)[nH]cnc21)C(=O)O (stereo unspecified)
inactive: [10] 106 % of control | [14] 103 % of control | [15] 97 % of control

CCOP(=S)(S)OCC.[Ni]
inactive: [16] 93 % of control | [1] 102 % of control | [2] 100 % of control

CC(=O)OCC1OC(n2ncc3c(=O)[nH]cnc32)C(OC(C)=O)C1OC(C)=O (stereo unspecified)
inactive: dose: 12.5 mg/kg/injection, schedule: Q01DX005 (ip), vehicle: water 103 % of control | dose: 25.0 mg/kg/injection, schedule: Q01DX005 (ip), vehicle: water 104 % of control | dose: 50.0 mg/kg/injection, schedule: Q01DX005 (ip), vehicle: water 97 % of control | dose: 100.0 mg/kg/injection, schedule: Q01DX005 (ip), vehicle: water 98 % of control | dose: 200.0 mg/kg/injection, schedule: Q01DX005 (ip), vehicle: water 92 % of control

CC(C)OP(=O)(CP(=O)(OC(C)C)OC(C)C)OC(C)C
inactive: [17] 95 % of control | [18] 97 % of control

CCCCCCCCCCCCSC(=O)NCCC
inactive: [11] 95 % of control | [12] 90 % of control | [13] 92 % of control

Cc1ncc(C(=O)O)c2c1OC(C)(C)OC2
inactive: [16] 100 % of control | [1] 91 % of control | [2] 100 % of control | [3] 94 % of control

CC(C)CCOC(=O)C1(C)OC1c1ccccc1 (stereo unspecified)
inactive: dose: 100.0 mg/kg/injection, schedule: Q04DX002 (ip), vehicle: saline 101 % of control | dose: 200.0 mg/kg/injection, schedule: Q04DX002 (ip), vehicle: saline 97 % of control | dose: 400.0 mg/kg/injection, schedule: Q04DX002 (ip), vehicle: saline 93 % of control

O=C(CC(O)(C(F)(F)F)C(F)(F)F)c1ccccc1[N+](=O)[O-]
inactive: dose: 12.5 mg/kg/injection, schedule: Q01DX009 (ip), vehicle: DMSO 94 % of control | dose: 12.5 mg/kg/injection, schedule: Q04DX003 (ip), vehicle: DMSO 97 % of control | dose: 25.0 mg/kg/injection, schedule: Q01DX009 (ip), vehicle: DMSO 86 % of control | dose: 25.0 mg/kg/injection, schedule: Q04DX003 (ip), vehicle: DMSO 95 % of control | dose: 50.0 mg/kg/injection, schedule: Q04DX003 (ip), vehicle: DMSO 110 % of control | dose: 100.0 mg/kg/injection, schedule: Q04DX003 (ip), vehicle: DMSO 102 % of control

CC(C)(N)COS(=O)(=O)O
inactive: [17] 106 % of control | [10] 101 % of control | [18] 96 % of control | [14] 114 % of control | dose: 400.0 mg/kg/injection, schedule: Q01DX009 (ip), vehicle: saline 105 % of control | [15] 96 % of control
